Test results taken from patent publication US9309242B2, “Substituted pyrido[2,3-b]pyrazines as FGFR kinase inhibitors” (priority 2011, dated 2016).
Read-outs that look alike come from different tables or passages of the source.

Experiments:
KDR (h) = KDR (h) (Homo sapiens, UniProt P35968); assay: KDR (VEGFR2) (enzymatic assay), TR-FRET; type: biochemical; settings: read-out: VEGFR 2 (KDR) pIC50 (converted)
In short: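 Human KDR (150 ng/ml) was reacted with 500 nM Btn-Flt3 and 3 μM ATP in 50 mM HEPES pH 7.5, 6 mM MnCl2, 1 mM DTT, 0.1 mM Na3VO4, 0.01% Triton X-100, 1% DMSO, for 120 min at room temperature. Phosphorylation detected by TR-FRET (Eu-anti-P-Tyr/SA-XL665, 60 min), read in RFU.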

[1] = tested on: Ba/F3-KDR-transfected cells; assay: Ba/F3-KDR (plus IL3) cellular proliferation assay, counterscreen with 10 ng/ml murine IL3; type: cell-based; settings: plus IL3 (10 ng/ml murine IL3, counterscreen); read-out: BAF3-KDR (PLUS IL3) pIC50 (converted)
In short: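 Ba/F3-KDR-transfected cells, 20000 per well in phenol red free RPMI-1640 with 10% FBS, exposed to compound 24 hours at 37° C, 5% CO2; Alamar Blue then added for 4 hours and fluorescence read (ex. 540 nm, em. 590 nm). Plus-IL3 counterscreen run identically with 10 ng/ml murine IL3.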

FGFR2 (h) = FGFR2 (h) (Homo sapiens, UniProt P21802); assay: FGFR2 (enzymatic assay), TR-FRET; type: biochemical; settings: enzymatic assay, read-out: FGFR 2 pIC50 (converted)
In short: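 Compound (1% DMSO final) was combined with FGFR2 (h), 150 ng/ml, plus 0.4 μM ATP and 500 nM biotin-Flt3 in Mn2+-containing HEPES buffer at pH 7.5.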

[2] = molecular target: T1, Ba/F3-FGFR1-transfected cells (Homo sapiens, UniProt P11362); assay: Ba/F3-FGFR1 (minus IL3) cellular proliferation assay, Alamar Blue; type: cell-based
T1 construct: BAF3-FGFR1 (MIN IL3) pIC50; other: minus IL3
In short: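 Read-out: resazurin reduction, fluorescence ex 540 nm/em 590 nm after 4 h Alamar Blue at 37 °C. Before that, FGFR1-transfected Ba/F3 cells (20000/well) sat with compound for 24 h in RPMI-1640/10% FBS/2 mM L-Gln.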

[3] = molecular target: T2, Ba/F3-FGFR3-transfected cells (Homo sapiens, UniProt P22607); assay: Ba/F3-FGFR3 (minus IL3) cellular proliferation assay, Alamar Blue; type: cell-based
T2 construct: BAF3-FGFR3 (MIN IL3) pIC50; other: minus IL3
In short: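 Read-out: resazurin-based Alamar Blue fluorescence (ex 540 nm, em 590 nm) after a 4 h dye incubation. FGFR3-transfected Ba/F3 cells, 20000 per well, are exposed to compound for 24 h at 37° C in RPMI-1640/10% FBS. Plus-IL3 counterscreen adds 10 ng/ml murine IL3.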

[4] = molecular target: Ba/F3-FGFR4-transfected cells (Homo sapiens, UniProt P22455); assay: Ba/F3-FGFR4 cellular proliferation assay, Alamar Blue; type: cell-based
In short: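 Ba/F3-FGFR4 cells (20000/well) in phenol red-free RPMI-1640 with 10% FBS are exposed to compound for 24 h at 37 °C, 5% CO2. Alamar Blue (resazurin) is then added for 4 h and fluorescence read at ex 540/em 590 nm.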

FGFR3 (h) = FGFR3 (h) (Homo sapiens, UniProt P22607); assay: FGFR3 (enzymatic assay), TR-FRET; type: biochemical; settings: read-out: FGFR 3 pIC50 (converted)
From the text: Time-Resolved Fluorescence Resonance Energy Transfer (TR-FRET) signal (ex340 nm.

FGFR4 (h) = FGFR4 (h) (Homo sapiens, UniProt P22455); assay: FGFR4 (enzymatic assay), TR-FRET; type: biochemical; settings: FGFR 4 pIC50, enzymatic assay
[5] = tested on: Ba/F3-FGFR1-transfected cells; assay: Ba/F3-FGFR1 (plus IL3) cellular proliferation assay, counterscreen with 10 ng/ml murine IL3; type: cell-based; settings: plus IL3 (10 ng/ml murine IL3, counterscreen); read-out: BAF3-FGFR1 (PLUS IL3) pIC50 (converted)
In short: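 Ba/F3-FGFR1 cells (20000/well) in RPMI-1640 with 10% FBS exposed to compound for 24 h at 37° C., 5% CO2, then Alamar Blue (resazurin) added for 4 h; fluorescence read at ex 540/em 590 nm. Counterscreen run identically with 10 ng/ml murine IL3.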

[6] = average values if tested multiple times

Sequence of FGFR2 (h) (P21802 22-821): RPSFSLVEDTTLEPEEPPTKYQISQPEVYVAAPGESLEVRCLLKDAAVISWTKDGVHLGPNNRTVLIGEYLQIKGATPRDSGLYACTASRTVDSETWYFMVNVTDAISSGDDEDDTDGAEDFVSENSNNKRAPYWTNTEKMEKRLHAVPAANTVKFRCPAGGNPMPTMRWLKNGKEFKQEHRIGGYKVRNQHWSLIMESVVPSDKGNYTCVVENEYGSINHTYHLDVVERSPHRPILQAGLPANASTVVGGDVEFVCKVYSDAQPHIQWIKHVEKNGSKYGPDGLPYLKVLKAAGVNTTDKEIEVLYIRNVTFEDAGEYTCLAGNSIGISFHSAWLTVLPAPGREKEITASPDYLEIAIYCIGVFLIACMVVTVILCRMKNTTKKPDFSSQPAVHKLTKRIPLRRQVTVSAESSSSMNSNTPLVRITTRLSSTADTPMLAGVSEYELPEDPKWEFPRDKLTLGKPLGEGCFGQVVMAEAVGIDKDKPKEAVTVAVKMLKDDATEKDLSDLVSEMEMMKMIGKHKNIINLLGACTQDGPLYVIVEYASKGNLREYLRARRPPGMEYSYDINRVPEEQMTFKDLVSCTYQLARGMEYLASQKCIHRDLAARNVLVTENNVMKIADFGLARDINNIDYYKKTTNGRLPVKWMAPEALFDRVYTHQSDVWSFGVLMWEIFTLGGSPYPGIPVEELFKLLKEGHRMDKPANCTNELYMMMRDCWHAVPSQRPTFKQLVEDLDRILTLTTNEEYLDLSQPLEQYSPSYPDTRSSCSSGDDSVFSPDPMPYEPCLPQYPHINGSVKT
Sequence of FGFR3 (h) (P22607 23-806): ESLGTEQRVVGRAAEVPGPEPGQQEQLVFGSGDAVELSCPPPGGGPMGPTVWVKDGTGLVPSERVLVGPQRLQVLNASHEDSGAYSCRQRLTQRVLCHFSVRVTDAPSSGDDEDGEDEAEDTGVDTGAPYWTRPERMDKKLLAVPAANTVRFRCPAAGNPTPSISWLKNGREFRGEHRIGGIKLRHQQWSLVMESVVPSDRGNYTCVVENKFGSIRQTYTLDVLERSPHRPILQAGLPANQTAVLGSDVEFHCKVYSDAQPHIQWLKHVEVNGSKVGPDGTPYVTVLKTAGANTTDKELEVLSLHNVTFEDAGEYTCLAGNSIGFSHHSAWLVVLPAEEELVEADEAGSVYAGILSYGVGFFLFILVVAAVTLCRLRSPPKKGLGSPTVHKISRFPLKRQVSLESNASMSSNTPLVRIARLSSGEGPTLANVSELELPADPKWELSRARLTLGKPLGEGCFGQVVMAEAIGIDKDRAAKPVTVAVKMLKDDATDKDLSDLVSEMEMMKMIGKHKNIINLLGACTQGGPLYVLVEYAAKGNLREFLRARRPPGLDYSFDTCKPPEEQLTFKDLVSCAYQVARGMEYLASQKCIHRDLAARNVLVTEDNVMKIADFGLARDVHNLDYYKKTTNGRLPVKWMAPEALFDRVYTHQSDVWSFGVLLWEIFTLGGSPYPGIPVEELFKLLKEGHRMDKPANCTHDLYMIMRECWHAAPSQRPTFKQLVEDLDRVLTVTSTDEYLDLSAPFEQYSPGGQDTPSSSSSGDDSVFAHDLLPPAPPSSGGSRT
Sequence of FGFR4 (h) (P22455 22-802): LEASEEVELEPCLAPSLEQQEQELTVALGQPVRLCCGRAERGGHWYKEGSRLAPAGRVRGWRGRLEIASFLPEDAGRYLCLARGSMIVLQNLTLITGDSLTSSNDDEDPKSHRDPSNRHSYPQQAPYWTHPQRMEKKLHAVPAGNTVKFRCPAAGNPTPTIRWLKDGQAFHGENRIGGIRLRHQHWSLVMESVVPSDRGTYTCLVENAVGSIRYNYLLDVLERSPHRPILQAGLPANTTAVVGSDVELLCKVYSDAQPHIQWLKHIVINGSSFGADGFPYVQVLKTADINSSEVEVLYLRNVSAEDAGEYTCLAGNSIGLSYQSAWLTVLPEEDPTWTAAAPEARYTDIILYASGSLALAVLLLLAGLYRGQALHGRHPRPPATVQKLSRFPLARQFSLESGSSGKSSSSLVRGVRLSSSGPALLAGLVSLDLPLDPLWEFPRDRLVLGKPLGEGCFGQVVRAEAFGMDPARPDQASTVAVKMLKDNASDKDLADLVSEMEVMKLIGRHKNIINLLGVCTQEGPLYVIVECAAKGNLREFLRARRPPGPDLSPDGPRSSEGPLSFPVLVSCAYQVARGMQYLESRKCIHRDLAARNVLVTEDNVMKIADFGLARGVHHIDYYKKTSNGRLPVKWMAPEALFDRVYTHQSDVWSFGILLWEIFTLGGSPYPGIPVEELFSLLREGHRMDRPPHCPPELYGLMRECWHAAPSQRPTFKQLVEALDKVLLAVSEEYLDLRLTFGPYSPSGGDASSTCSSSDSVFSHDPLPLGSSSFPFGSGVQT
T1 sequence (P11362 whole entry, change not shown): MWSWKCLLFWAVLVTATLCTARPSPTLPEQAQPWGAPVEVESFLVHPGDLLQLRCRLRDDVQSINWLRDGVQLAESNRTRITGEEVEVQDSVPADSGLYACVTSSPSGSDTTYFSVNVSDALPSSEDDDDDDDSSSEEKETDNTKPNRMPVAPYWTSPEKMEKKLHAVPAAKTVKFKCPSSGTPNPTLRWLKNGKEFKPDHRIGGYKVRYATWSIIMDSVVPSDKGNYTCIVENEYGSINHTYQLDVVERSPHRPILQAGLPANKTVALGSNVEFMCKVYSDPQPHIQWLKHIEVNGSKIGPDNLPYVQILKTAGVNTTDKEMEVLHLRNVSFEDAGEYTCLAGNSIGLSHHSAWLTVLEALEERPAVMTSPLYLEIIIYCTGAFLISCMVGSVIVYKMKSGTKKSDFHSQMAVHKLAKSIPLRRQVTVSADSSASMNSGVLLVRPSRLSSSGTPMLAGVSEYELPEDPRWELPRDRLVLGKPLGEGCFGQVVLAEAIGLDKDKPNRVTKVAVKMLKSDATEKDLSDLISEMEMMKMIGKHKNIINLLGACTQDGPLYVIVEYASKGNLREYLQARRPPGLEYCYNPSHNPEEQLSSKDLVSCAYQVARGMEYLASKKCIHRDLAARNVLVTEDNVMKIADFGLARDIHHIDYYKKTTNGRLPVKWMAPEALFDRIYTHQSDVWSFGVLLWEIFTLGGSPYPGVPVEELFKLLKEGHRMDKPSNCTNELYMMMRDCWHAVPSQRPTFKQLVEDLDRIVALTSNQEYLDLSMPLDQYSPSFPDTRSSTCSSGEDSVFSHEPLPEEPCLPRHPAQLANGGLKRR
Sequence of Ba/F3-FGFR4-transfected cells (P22455 whole entry, change not shown): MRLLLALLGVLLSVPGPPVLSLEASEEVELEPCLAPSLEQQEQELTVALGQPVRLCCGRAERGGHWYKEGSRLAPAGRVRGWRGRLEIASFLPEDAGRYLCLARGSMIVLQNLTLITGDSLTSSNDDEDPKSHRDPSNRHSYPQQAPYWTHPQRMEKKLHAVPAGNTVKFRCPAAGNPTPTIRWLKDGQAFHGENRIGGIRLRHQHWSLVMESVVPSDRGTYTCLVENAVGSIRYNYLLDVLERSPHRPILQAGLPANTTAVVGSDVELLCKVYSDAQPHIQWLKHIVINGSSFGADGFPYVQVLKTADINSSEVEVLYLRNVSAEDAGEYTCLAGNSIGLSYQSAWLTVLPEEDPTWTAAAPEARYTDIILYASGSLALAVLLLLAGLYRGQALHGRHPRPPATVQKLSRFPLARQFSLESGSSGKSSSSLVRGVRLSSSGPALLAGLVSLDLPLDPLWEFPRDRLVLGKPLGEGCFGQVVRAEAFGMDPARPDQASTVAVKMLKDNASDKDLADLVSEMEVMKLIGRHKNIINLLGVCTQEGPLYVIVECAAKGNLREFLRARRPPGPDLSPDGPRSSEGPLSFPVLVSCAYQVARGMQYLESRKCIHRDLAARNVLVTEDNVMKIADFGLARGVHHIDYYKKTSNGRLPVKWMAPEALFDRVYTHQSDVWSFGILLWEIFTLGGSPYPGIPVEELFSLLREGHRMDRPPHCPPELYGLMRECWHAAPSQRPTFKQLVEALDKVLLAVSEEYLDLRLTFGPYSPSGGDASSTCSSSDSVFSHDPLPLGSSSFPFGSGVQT
T2 sequence (P22607 whole entry, change not shown): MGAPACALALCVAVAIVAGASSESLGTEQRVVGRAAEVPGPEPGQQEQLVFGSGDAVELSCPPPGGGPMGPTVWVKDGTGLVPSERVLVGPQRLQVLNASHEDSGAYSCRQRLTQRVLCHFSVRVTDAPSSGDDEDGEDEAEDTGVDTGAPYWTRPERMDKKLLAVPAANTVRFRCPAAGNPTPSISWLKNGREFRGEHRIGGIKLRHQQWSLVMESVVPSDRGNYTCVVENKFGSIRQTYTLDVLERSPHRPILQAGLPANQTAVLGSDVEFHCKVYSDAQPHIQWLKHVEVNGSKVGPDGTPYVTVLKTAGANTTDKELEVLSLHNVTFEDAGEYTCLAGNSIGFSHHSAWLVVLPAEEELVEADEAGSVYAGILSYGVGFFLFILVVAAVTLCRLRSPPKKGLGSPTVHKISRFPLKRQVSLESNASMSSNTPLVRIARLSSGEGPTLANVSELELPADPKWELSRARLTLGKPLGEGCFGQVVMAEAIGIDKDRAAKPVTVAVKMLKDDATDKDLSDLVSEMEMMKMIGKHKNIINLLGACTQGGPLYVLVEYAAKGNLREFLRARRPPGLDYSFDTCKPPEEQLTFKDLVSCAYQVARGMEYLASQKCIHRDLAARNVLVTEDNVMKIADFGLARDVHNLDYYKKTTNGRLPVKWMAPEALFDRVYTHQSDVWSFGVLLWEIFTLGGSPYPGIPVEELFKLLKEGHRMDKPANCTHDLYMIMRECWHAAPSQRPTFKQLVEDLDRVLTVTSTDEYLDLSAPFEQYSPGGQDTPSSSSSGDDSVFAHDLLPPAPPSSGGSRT

Structure (SMILES)	IC50 (KDR (h))	IC50 [1]	IC50 (FGFR2 (h))	BAF3-FGFR1 (MIN IL3) pIC50 [2]	BAF3-FGFR3 (MIN IL3) pIC50 [3]	BAF3-FGFR4 pIC50 [4]	IC50 (FGFR3 (h))	IC50 (FGFR4 (h))	IC50 [5]	IC50 (KDR (h); [6])	IC50 (FGFR2 (h); [6])	IC50 (FGFR3 (h); [6])	IC50 (FGFR4 (h); [6])
COc1cc(OC)c(F)c(N(Cc2nccn2C)c2ccc3ncc(-c4cnn(C)c4)nc3n2)c1 [Compound 131]	19.1 nM	> 10000 nM	2.63 nM	7.62	7.25	6.62	2.95 nM	7.41 nM	> 10000 nM				
COc1cc(OC)c(F)c(N(Cc2cc[nH]n2)c2ccc3ncc(-c4cnn(C)c4)nc3n2)c1 [Compound 118]		> 10000 nM		8.00	~8.04	~7.56			> 10000 nM	6.46 nM	1.32 nM	0.589 nM	0.776 nM
COc1cc(O)cc(N(Cc2ncc[nH]2)c2ccc3ncc(-c4cnn(C)c4)nc3n2)c1 [Compound 103]		> 10000 nM		8.31	~8.00	~7.43			> 8510 nM	5.37 nM	0.741 nM	0.417 nM	0.741 nM
COc1cc(OC)c(F)c(N(Cc2c[nH]cn2)c2ccc3ncc(-c4cnn(C)c4)nc3n2)c1 [Compound 41]		> 10000 nM		7.99	8.08	7.47			> 10000 nM	5.37 nM	1.32 nM	0.589 nM	0.759 nM
COc1cc(OC)c(F)c(/N=c2\ccc3ncc(-c4cnn(C)c4)nc3n2CC(O)COC(C)C)c1F (stereo not drawn) [Compound 64]		> 10000 nM		8.40	8.12	7.52			> 10000 nM	7.41 nM	1.62 nM	0.832 nM	1 nM
COc1cc(OC)c(F)c(N(Cc2cn(S(=O)(=O)N(C)C)cn2)c2ccc3ncc(-c4cnn(C)c4)nc3n2)c1 [Compound 36]		> 10000 nM		7.72	~7.57	7.30			> 10000 nM	27.5 nM	3.98 nM	1.7 nM	1.48 nM
COc1cc(OC)cc(N(Cc2ncc[nH]2)c2ccc3ncc(-c4cnn(C)c4)nc3n2)c1 [Compound 24]		> 10000 nM		8.46	8.20	7.77			> 10000 nM	10.7 nM	1.12 nM	0.603 nM	0.741 nM
COc1ccc(Cl)c(/N=c2\ccc3ncc(-c4cnn(C)c4)nc3n2CC2CCC(=O)N2)c1Cl (stereo not drawn) [Compound 92]		> 10000 nM		<5	~5.61	<5			> 10000 nM	309 nM	30.2 nM	46.8 nM	562 nM
COc1cc(OC)c(F)c(N(Cc2nc(C)c[nH]2)c2ccc3ncc(-c4cnn(C)c4)nc3n2)c1 [Compound 135]	8.71 nM	> 10000 nM	1.78 nM	8.82	8.25	8.05	1.48 nM	1.26 nM	> 10000 nM				
COc1cc(/N=c2\ccc3ncc(-c4cnn(C)c4)nc3n2Cc2ccnn2C)c(F)c(OC)c1 [Compound 114]		> 10000 nM		7.63	~7.66	7.14			> 10000 nM	4.9 nM	1.62 nM	0.724 nM	0.891 nM
COc1cc(/N=c2\ccc3ncc(-c4cnn(C)c4)nc3n2CC2CCC(=O)N2)c(F)c(OC)c1 (stereo not drawn) [Compound 45]		> 10000 nM		7.14	7.07	6.59			> 10000 nM	13.5 nM	1.91 nM	1.35 nM	3.98 nM
COc1cc(OC)c(F)c(N(Cc2nc[nH]c2C)c2ccc3ncc(-c4cnn(C)c4)nc3n2)c1 [Compound 109]		> 10000 nM		7.85	~7.65	~7.05			> 10000 nM	20 nM	2.29 nM	1.45 nM	2.69 nM
COc1cc(/N=c2\ccc3ncc(-c4cnn(C)c4)nc3n2CC(O)COC(C)C)c(F)c(OC)c1 (single isomer, unassigned) [Compound 77]		> 10000 nM		7.37	7.38	6.46			> 10000 nM	28.8 nM	3.16 nM	1.78 nM	3.02 nM
Cn1cc(-c2cnc3ccc(N(Cc4ncc[nH]4)c4cc(F)cc(F)c4)nc3n2)cn1 [Compound 27]		> 10000 nM		6.14	~6.54	6.09			> 10000 nM	501 nM	6.61 nM	3.89 nM	11.2 nM
COc1ccc(Cl)c(/N=c2\ccc3ncc(-c4cnn(C)c4)nc3n2CC2CCC(=O)N2)c1Cl (single isomer, unassigned) [Compound 89]		> 10000 nM		5.18	5.14	<5			> 10000 nM	339 nM	70.8 nM	97.7 nM	~1120 nM
COc1cc(OC)c(F)c(N(CCNC(C)C)c2ccc3ncc(-c4cnn(C)c4)nc3n2)c1F [Compound 5]		> 10000 nM		8.7	8.3	~8.21			6310 nM	79.4 nM	3.98 nM	1.58 nM	6.31 nM
COc1cc(OC)c(Cl)c(N(Cc2ncc[nH]2)c2ccc3ncc(-c4cnn(C)c4)nc3n2)c1 [Compound 42]		> 10000 nM		8.57	~8.3	7.35			> 10000 nM	8.91 nM	2.04 nM	2.14 nM	3.02 nM
CNCCn1/c(=N/c2c(F)cccc2F)ccc2ncc(-c3cnn(C)c3)nc21 [Compound 44]		> 10000 nM		5.12	<5	<5			> 10000 nM	> 1000 nM	219 nM	~794 nM	2820 nM
COc1cc(OC)c(F)c(N(CC2CCC(=O)N2)c2ccc3ncc(-c4cnn(C)c4)nc3n2)c1 (stereo not drawn) [Compound 46]		> 10000 nM		7.33	7.42	6.76			> 10000 nM	41.7 nM	2.45 nM	1.51 nM	3.89 nM
